{
  "source": "patent US20230201632A1",
  "about": "“METHODS FOR FIXING HAIR AND SKIN” (Olaplex, Inc., priority 2013, published 2023)",
  "key": {"[1]": {"experiment": "Hair breakage after repeated perm, visual inspection", "parameters": "species or system human", "conditions": "perm procedure repeated three times over 48 hours", "protocol": "Two hair samples were obtained. Both samples were treated with dithiothreitol or ammonium thioglycolate as described in Example 1. One of the hair samples was subsequently treated with the binding formulation, while the other was neutralized with hydrogen peroxide. The process was completed the same day for the hair treated with the binding formulation. The process was completed in three days with hydrogen peroxide (traditional perm).\nThe procedure was repeated three times for each hair sample over a 48 hour time period."}, "[2]": {"experiment": "Perm of hair with binding formulation or hydrogen peroxide, 40 wash and dry cycles", "parameters": "species or system human", "conditions": "after 40 cycles of washing and drying with the same shampoo and conditioner; hair reduced with ammonium thioglycolate or dithiothreitol", "protocol": "Hair samples were obtained from a human subject and cut in ½ inch wide wefts.\nReducing agents: Ammonium thioglycolate (ATG) was obtained from a permanent wave kit manufactured by Zotos. 300 mg of Dithiothreitol in a 10 g solution was also used as the reducing agent.\nBinding formulation: A bismaleate binding agent 2,2′-(ethane-1,2-diylbis(oxy))bis(ethan-1-amine) di-maleate at a concentration of 300 mg in 10 g total solution (water) was used.\nThe hair was washed with clarifying shampoo, towel dried, and then rolled around a perm rod. Ammonium thioglycolate or dithiothreitol was then applied to the hair and left on the hair for 10 minutes to 1 hour. The hair was then rinsed for 30 seconds to 1 minute and then blotted dry with a towel.\nThe binding formulation was applied to the hair, via a needle nose applicator, drenching the hair. The binding agent was left on the hair for a period of about 7.5 minutes. The hair was drenched for a second time with the binding formulation and left for a second 7.5 minutes, for a total of 15 minutes. The hair was then rinsed with water for about 1-2 minutes then unrolled from the perm rods. After the hair was removed from the perm rods, the hair was shampooed and conditioned with various salon shampoo and conditioner brands, including LiQWd® Hydrating Shampoo and Hydrating Conditioner. The washing and drying steps were repeated 40 times. […]"}},
  "data": [
    {"smiles": "OO", "note": "[hydrogen peroxide]", "values": [
      {"measurement": "hair breakage upon visual inspection", "setting": "[1]", "value": "significant breakage"},
      {"measurement": "reduction in the overall curl", "setting": "[2]", "value": "only slight reduction in the overall curl"}
    ]}
  ]
}
